Consider four compounds from publication PMC9014415, “Repositioning of a Diaminothiazole Series Confirmed to Target the Cyclin-Dependent Kinase CRK12 for Use in the Treatment of African Animal Trypanosomiasis” (Journal of Medicinal Chemistry, 2022).

The subject of one series is T. vivax. In words: Ex vivo drug sensitivity assay, T. vivax (STIB 719/ILRAD 560). It is filed as cell-based. Conditions: Trypanosoma vivax. On the procedure:
Test compounds were resuspended to a final concentration of 10 mg/mL in DMSO. […]
1.3 Ex vivo drug sensitivity assays - Trypanosoma vivax
Since T. vivax cannot be cultured axenically, BSF trypanosomes were harvested from an infected mouse with high parasitemia via cardiac puncture and used directly in ex vivo assays. EC50 values were determined against T, vivax (STIB 719/ ILRAD 560) as previously described3, with minor modifications. Briefly, cell densities were determined using a Neubauer chamber and then diluted to a seeding density of 4 x 105 trypanosomes / mL. BSF trypanosomes were cultured in HMI-9 (IMDM) media containing 20% (v/v) bovine serum. Assay plates were incubated at 37 °C with 5 % CO2, for a total of 45 h prior to addition 10 µL of Resazurin (12.5 mg in 100 mL phosphate buffered saline, Aldrich) into each well, followed by a further 3 h incubation. Absorbance was read using a SpectraMax (Gemini XS) fluorescence reader at an excitation wavelength of 536 nm and an emission wavelength of 588 nm. EC50 values were determined using SOFTmax Pro 5.2 analysis […]
software. […]

The next series deals with L6 cells. Description: Cytotoxicity assay, rat skeletal myoblasts (L6). It is filed as cell-based. On the procedure: 1.4 Cytotoxicity assays – Rat skeletal myoblasts (L6)
The cytotoxicity of test compounds was evaluated using a rat skeletal myoblast (L6) cell line, as previously described3, but with minor modifications. Cells were grown in RPMI media supplemented with 10% (v/v) fetal calf serum. L6 cells at a seeding density of 2 x 10^4 cells/mL were incubated in microtiter plates overnight at 37 °C and 5 % CO2 until adherent. The following day, test compounds were added to the plates (3-fold serial dilutions), prior to incubation for 69 h. Following incubation, 10 µL of Resazurin (12.5 mg in 100 mL phosphate buffered saline, Aldrich) was added to each well and the plates were incubated for a further 3 h. The plates were read using a SpectraMax (Gemini XS) fluorescence reader at an excitation wavelength of 536 nm and an emission wavelength of 588 nm. EC50 values were determined using SOFTmax Pro 5.2 analysis software. All experiments were conducted as technical replicates, with at least three biological replicates. […]

The nature of series [1]: Bovine liver microsome stability. It is filed as in vitro ADME. Conditions: intrinsic clearance. On the procedure:
2.2 Microsomal stability studies […]
(b) Bovine liver microsome stability. Test compounds (0.5 µM) were incubated with 0.5 mg/mL bovine liver microsomes (Xenotech LLC TM) in 50 mM potassium phosphate buffer, pH7.4 and the reaction initiated upon addition of excess NADPH (8 mg/mL in 50 mM potassium phosphate buffer, pH7.4).
Aliquots (50 µL) of the incubation mixture were taken at time zero, 3, 6, 9, 15 and 30 min then mixed with acetonitrile (100 µL) to stop the reaction. An internal standard was added to all samples, prior to centrifugation (10 min, 1,665 g, RT) to sediment precipitated protein. Reaction plates were then sealed prior to UPLCMSMS analysis using a Quattro Premier XE (Waters corporation, USA).
XLfit (IDBS, UK) was used to calculate the exponential decay and consequently the rate constant (k) from the ratio of peak area of test compound to internal standard at each timepoint. The rate of intrinsic clearance (CLi) of each test compound was then calculated using the following […]
CLi(mL/min/g liver) = k x V x microsomal protein yield
Where V (mL/mg protein) is the incubation volume/ mg protein added and microsomal protein yield is taken as 52.5 mg protein/ g of liver. Verapamil (0.5 µM) was used as a positive control to confirm acceptable assay performance. […]

Series [2] is described as follows: Aqueous kinetic solubility by laser nephelometry. As to conditions: MilliQ water with 2.5% DMSO, read-out: Sol (kinetic solubility); for solubility kinetic at 24 h: pH 7.4, range 250-12 µM. It is filed as physicochemical. On the procedure:
2. Drug metabolism and pharmacokinetics
The aqueous solubility of test compounds was measured using laser nephelometry. Compounds were subject to serial dilution from 10 mM to 0.5 mM in DMSO. Aliquot were then mixed with MilliQ water to obtain an aqueous dilution plate with a final concentration range of 250 – 12 µM. The final DMSO concentration in these plates was 2.5%. Triplicate aliquots were transferred to a flat-bottomed polystyrene plate which was immediately read on a NEPHELOstar nephelometer (BMG Lab Technologies). The laser scatter caused by insoluble particulates (relative nephelometry units, RNU) was plotted against compound concentration using a segmental regression fit, with the point of inflection being quoted as the compound’s aqueous solubility (µM).
Solubility of compound 1 was measured by a different method. Here, compound 1 was dissolved in DMSO to give a 10 mM solution and solubility test samples prepared by adding a volume (5 µL) of this stock solution to phosphate buffered saline, pH 7.4 (195 µL, Sigma-Aldrich). This

Converted amounts (≈) assume the structure as drawn. “And” between values parts separate entries of the source, which are not always exact repeats. Equal entries are not always repeated.

As for `CC(C)CS(=O)(=O)N[C@H]1CC[C@H](Nc2nc(N)c(C(=O)c3c(Cl)cccc3Cl)s2)CC1` [Compound 10, N-((trans)-4-((4-Amino-5-(2,6-dichlorobenzoyl)thiazol-2-yl)amino)cyclohexyl)-2-methylpropane-1-sulfonamide], the EC50 in the series on T. vivax worked out at 0.47 nM; in the series with L6 cells, 3400 nM. In addition, the “Bovine Microsome Cli (BLM: bovine microsomal clearance)” value (“Bovine Microsome Cli” below) in series [1] is 1.6 mL/min/g. Besides, the kinetic solubility at 24 h in series [2] is 53 µM (≈ 26.8 µg/mL).

Turning to `CC(C)CS(=O)(=O)N[C@H]1CC[C@H](Nc2nc(N)c(C(=O)c3c(F)cccc3F)s2)CC1` [Compound 1, N-((trans)-4-((4-Amino-5-(2,6-difluorobenzoyl)thiazol-2-yl)amino)cyclohexyl)-2-methylpropane-1-sulfonamide], the EC50 in the series on T. vivax came to 95 nM. For the same compound, the “Bovine Microsome Cli” value in series [1] is <0.5 / 0.5 mL/min/g and <0.5 mL/min/g.

`CNCc1cc(F)c(C(=O)c2sc(N[C@H]3CC[C@H](NS(=O)(=O)CC(C)C)CC3)nc2N)c(F)c1.Cl` [Compound 8, N-((trans)-4-((4-Amino-5-(2,6-difluoro-4-((methylamino)methyl)benzoylthiazol-2-yl)amino)cyclohexyl))-2-methylpropane-1-sulfonamide Hydrochloride]: the figures for the EC50 in the series on T. vivax and in the series on L6 cells were 0.68 nM and 15000 nM, respectively. Further, in series [1], the “Bovine Microsome Cli” value was 0.5 mL/min/g. In series [2] (range 250-12 µM), the solubility (kinetic) was > 250 µM.

With `CC(C)CS(=O)(=O)N[C@H]1CC[C@H](Nc2nc(N)c(C(=O)c3c(F)cc(CN(C)C)cc3F)s2)CC1` [Compound 2, N-(trans)-[4-[[4-Amino-5-[4-(dimethylaminomethyl)-2,6-difluoro-benzoyl]thiazol-2-yl]amino]cyclohexyl]-2-methyl-propane-1-sulfonamide], the EC50 with T. vivax came to 0.08 nM; in the series on L6 cells it was 3600 nM. Moreover, in series [1], the “Bovine Microsome Cli” value came to 1.1 mL/min/g. Also, the kinetic solubility at 24 h in series [2] was found to be 250 µM (≈ 132 µg/mL).

Usually EC50 stands for the concentration that produces a half-maximal response. A high value points to weaker potency. In general, solubility (kinetic) refers to the concentration staying in solution when a stock, usually in DMSO, is diluted into the medium.
